The record followed here is patent US20130165475A1, “DEUTERIUM-ENRICHED HETEROCYCLIC COMPOUNDS AS KINASE INHIBITORS” (ASCEPION PHARMACEUTICALS, INC., priority 2010, published 2013).

One data set deals with T1, EphB4 (Homo sapiens, UniProt P54760).
T1 construct: EphB4 autophosphorylation in PC-3 human prostate cancer cells; host or cells: PC-3 human prostate cancer cells
T1 sequence (P54760 16-987): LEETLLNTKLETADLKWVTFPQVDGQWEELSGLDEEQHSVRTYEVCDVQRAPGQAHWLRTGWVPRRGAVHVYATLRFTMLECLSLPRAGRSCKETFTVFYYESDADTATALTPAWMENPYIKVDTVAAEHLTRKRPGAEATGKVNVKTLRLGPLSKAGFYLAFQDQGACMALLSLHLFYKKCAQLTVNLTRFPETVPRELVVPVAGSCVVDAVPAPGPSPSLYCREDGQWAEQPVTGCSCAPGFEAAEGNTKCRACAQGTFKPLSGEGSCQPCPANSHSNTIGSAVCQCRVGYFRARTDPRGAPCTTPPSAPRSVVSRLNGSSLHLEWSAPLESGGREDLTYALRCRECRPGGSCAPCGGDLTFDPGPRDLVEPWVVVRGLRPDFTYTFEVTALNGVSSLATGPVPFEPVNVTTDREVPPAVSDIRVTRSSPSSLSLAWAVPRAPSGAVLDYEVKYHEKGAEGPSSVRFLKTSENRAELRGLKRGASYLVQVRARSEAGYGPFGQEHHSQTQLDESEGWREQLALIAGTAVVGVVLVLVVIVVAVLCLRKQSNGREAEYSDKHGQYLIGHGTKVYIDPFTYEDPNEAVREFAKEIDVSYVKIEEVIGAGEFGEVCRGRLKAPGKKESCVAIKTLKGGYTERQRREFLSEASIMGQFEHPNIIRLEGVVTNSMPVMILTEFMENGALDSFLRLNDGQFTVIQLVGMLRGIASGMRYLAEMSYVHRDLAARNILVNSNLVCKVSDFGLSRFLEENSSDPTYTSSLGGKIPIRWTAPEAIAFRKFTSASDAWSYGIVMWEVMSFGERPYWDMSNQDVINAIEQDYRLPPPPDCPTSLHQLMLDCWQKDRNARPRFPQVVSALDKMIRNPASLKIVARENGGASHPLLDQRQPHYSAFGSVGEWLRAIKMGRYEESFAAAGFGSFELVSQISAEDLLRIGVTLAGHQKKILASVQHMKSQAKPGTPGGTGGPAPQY
The data set is described as follows: EphB4 cell-based assay (quantitative Western blotting, PC-3 cells, Ephrin-B2 stimulated). To be noted: compound at 100 nM; PC-3 human prostate cancer cells; Ephrin-B2 stimulation; read-out: % EphB4 kinase activity remains. The source says:
A standard image-based quantitative Western blotting assay for EphB4 kinase activity can be used to test or screen the compounds of this invention and to identify EphB4 antagonists.
The kinase activity of EphB4 in cells depends on its autophosphorylation level stimulated by the binding to its ligand Ephrin-B2. High level of EphB4 autophosphorylation in PC-3 human prostate cancer cells (ATCC, USA) induced by the application of Ephrin-B2 to the cell culture can be observed by regular Western blotting assay.
A compound to be tested was first dissolved in DMSO to a concentration of 10 mM and stored at −20° C. On the day of screening procedure, the compound in DMSO was added into DMEM medium to a final concentration of 100 nM. Two hours later, Ephrin-B2 ([…]) was added into DMEM medium to stimulate the production of phosphor-EphB4. The phosphor-EphB4 was detected based on its molecular weight and with anti-phosphor protein antibody PY-20 in cell lysate from approximately 5×10^5 PC-3 cells by Western blotting followed by imaging quantification. The relative level of EphB4 kinase activity was quantified as the ratio between the amount of phosphor-EphB4 and that of total Actin proteins.

For a further data set, the target named is T2, PDGFRβ (Homo sapiens, UniProt P09619).
T2 construct: expressed in transfected cells; host or cells: CHO cells
The data set is described as follows: PDGFRβ cell-based assay (ELISA, phosphor-/total PDGFRβ in transfected CHO cells). Conditions: compound at 100 nM; CHO cells transfected with full length PDGFRβ; FBS stimulation; read-out: % PDGFRβ kinase activity remains. An excerpt:
A standard cell-based assay for PDGFRβ kinase activity can be used to test or screen the compounds of this invention and to identify PDGFRβ antagonists. In this example, ELISA kits (R&D Systems, Inc., Minneapolis, Minn. 55413, USA) were used.
The activity of PDGFRβ in cells depended on its autophosphorylation level by various factors including growth factors. In order to induce the cell to produce PDGFRβ, full length of PDGFRβ sequence was cloned into PC-DNA3.1 vector, the plasmid was then transfected into CHO cells. After 48 hours, the expression of PDGFRβ in transfected CHO cells was confirmed by regular western blotting.
A compound to be tested was first dissolved in DMSO to a concentration of 10 mM and stored at −20° C. One day before the screening, CHO cells transfected with full length PDGFRβ plasmid were grown in DMEM medium without the presence of serum. On the day of screening procedure, the compounds with various concentration in DMSO (from 0.5 nM to 500 nM) were added into DMEM medium, two hours later, 20% of FBS (Fetal Bovine Serum) was added into the medium to stimulate the production of phosphor-PDGFRβ. Cell lysate from approximately 5×10^5 transfected CHO cells were reacted with anti-phosphor PDGFRβ or anti-total PDGFRβ antibody in 96 well plates, in the presence of detection antibody. The phosphor-PDGFRβ or total PDGFRβ were detected with Streptavidin-HRP (R&D Systems), followed by chemiluminescent detection. The level of PDGFRβ kinase activity was quantified as the ratio between the amount of phosphor- and that of total PDGFRβ proteins.

A short description of data set [1]: Oral bioavailability study, Group 2 (rats). The class given is in vivo, male SD rat. As for the experimental part:
Oral pharmacokinetic studies on rats were performed on Example 2, this compound was dissolved in PEG-400 (2:1 mixture of PEG400 and 0.01N HCL (v/v)) and administered orally to male SD rat at a dose of 50 mg/kg. Rat blood was obtained from tail vein at 0.25, 0.5, 1, 2, 3, 4, 6, 8, 12, and 24 hours after administration. The blood concentration of Example 2 was determined using appropriate internal standards and reverse phase HPLC with UV detection. Control blood samples were also run to identify compound-specific peaks. The oral bioavailability was determined by comparing the dose corrected areas under plasma-concentration time curve (AUC) to infinity for Example 2, given orally and intravenously in rats.

Where only a bound is given, the exact number is not on record here.

T2 sequence (P09619 33-1106): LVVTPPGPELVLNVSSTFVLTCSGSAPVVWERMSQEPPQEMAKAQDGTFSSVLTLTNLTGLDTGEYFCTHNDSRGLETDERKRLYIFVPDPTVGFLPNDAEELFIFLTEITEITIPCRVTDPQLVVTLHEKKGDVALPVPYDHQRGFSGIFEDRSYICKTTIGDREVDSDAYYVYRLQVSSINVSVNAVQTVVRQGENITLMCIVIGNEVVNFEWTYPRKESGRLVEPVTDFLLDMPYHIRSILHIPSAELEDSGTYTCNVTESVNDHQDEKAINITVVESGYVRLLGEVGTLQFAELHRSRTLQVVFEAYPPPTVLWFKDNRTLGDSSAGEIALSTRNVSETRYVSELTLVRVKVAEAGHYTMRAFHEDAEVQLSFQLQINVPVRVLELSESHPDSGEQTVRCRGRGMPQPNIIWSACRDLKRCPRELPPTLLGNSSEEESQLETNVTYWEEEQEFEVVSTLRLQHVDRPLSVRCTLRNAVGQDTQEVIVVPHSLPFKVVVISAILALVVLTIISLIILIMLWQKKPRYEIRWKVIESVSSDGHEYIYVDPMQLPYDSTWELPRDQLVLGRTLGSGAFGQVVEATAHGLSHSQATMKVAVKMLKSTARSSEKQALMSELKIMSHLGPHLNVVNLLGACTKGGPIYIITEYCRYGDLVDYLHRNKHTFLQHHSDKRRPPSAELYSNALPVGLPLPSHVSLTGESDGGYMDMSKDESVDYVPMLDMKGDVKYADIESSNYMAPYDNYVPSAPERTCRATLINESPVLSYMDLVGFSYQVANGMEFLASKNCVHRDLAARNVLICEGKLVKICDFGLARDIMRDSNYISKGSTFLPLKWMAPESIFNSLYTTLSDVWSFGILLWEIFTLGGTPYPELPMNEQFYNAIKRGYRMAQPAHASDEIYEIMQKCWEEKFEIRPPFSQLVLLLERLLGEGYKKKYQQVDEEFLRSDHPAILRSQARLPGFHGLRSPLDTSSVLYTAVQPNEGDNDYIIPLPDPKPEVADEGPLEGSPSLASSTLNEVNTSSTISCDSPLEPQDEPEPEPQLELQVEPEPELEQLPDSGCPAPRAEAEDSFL

`Cl.[2H]C([2H])(c1ccnc(N)c1)n1ccc2c(NC(=O)Nc3cc(Cl)ccc3OC)cccc21` [Example 2, 1-[1-[(2-amino-4-pyridyl)-dideuteriomethyl]indol-4-yl]-3-(5-chloro-2-methoxyphenyl)urea hydrochloride]: the remaining activity at 0.1 µM at EphB4 and on PDGFRβ was less than 70% in each case. Further, the bioavailability in data set [1] (plasma, male SD rat, 50 mg/kg oral, AUC to infinity oral vs intravenous) is greater than 67%. Also, in data set [1] (rat study, 0.25 hours after 50 mg/kg oral dosing), the “amount detected in blood after oral dosing” value is listed as “substantial amounts”. Besides, the half-life in data set [1] (whole blood, male SD rat, 50 mg/kg oral) was 2 to 3 h.
As for `Cl.[2H]C([2H])([2H])Oc1ccc(Cl)cc1NC(=O)Nc1cccc2c1ccn2C([2H])([2H])c1ccnc2[nH]ccc12` [Example 8, 1-[5-chloro-2-(trideuteriomethoxy)phenyl]-3-[1-[dideuterio(1H-pyrrolo[2,3-b]pyridin-4-yl)methyl]indol-4-yl]urea hydrochloride], the remaining activity at 0.1 µM was no less than 70% at EphB4 and less than 70% at PDGFRβ.
With `[2H]C(c1c[nH]c2ncccc12)n1ccc2c(NC(=O)Nc3cc(Cl)ccc3OC)cccc21` (centres unmarked) [Example 18, 1-(5-chloro-2-methoxyphenyl)-3-[1-[deuterio(1H-pyrrolo[2,3-b]pyridin-3-yl)methyl]indol-4-yl]urea], the remaining activity at 0.1 µM at EphB4 and at PDGFRβ was less than 70% throughout.
As for `Cl.[2H]C([2H])([2H])Oc1ccc(Cl)cc1NC(=O)Nc1cccc2c1CCN2C([2H])([2H])c1ccnc2[nH]ccc12` [Example 7, 1-[5-Chloro-2-(trideuteriomethoxy)phenyl]-3-[1-[dideuterio(1H-pyrrolo[2,3-b]pyridin-4-yl)methyl]indolin-4-yl]urea hydrochloride], the results for the remaining activity at 0.1 µM on EphB4 and at PDGFRβ were no less than 70% and less than 70%, respectively.
